How the values were obtained:
[1] = system: relapsing-remitting PLP139-151 induced EAE in SJL mice; experiment: Relapsing-remitting EAE in SJL mice, preventive treatment regimen; assay type: in vivo; conditions: for Incidence (%): PLP139-151 in CFA; for severity of the disease (in words): preventive treatment, 500 μg/kg
Source text: (§1) The relapsing-remitting EAE model was obtained in female SJL mice by immunization with myelin proteolipid protein fragment 139-151 (PLP139-151) in complete Freund's adjuvant (CFA) [Pedotti et al., Nat Immunol 2001]. The chronic EAE model was obtained in C57BL/6 mice as mentioned before.
(§2) We used non-peptide prokineticin receptors antagonist drugs called PC1 and PC7 (whose chemical structure is shown in FIG. 1) to chronically treat the mice starting both from the time of induction of EAE (day 0; preventive treatment) and from the onset of the first symptoms of EAE (day 10-12, approximately; therapeutic treatment).
(§3) With reference to FIG. 4, the non-peptide prokineticin receptor 1 and 2 antagonist PCI was administered intraperitoneally to 8-12 week old female SJL mice in which EAE had been induced by immunization with PLP139-151 (100 μg/mouse) in CFA. The PC1 was given at a dose of 500 μg/kg (n=10). As a control, an equal amount of saline solution was injected (vehicle) (n=10). The treatments began at the time of induction of EAE (preventive treatment), or, more specifically, 4 hours after the induction of EAE. Ten mice per group were used. The graph represents the average daily disease score±standard error of the mean (SEM). A scale of 0 to 5 was used to attribute the score, where 0 is the absence of symptoms and 5 is death (as described in Pedotti et al, Nat Immunol 2001). *p<0.05 for two-tailed unpaired Student's t test vs Control. The results are representative of three consecutive experiments that gave similar results.
as §3, with “6,” for “4,”, “PC-7” for “PCI”, “PC7” for “PC1”, “μg /kg” for “μg/kg”, “(SEM).” for “(SEM). A scale of 0 to 5 was used to attribute the score, where 0 is the absence of symptoms and 5 is death (as described in Pedotti et al, Nat Immunol 2001). *p<0.05 for two-tailed unpaired Student's t test vs Control.”

[2] = system: relapsing-remitting PLP139-151 induced EAE in SJL mice; experiment: Relapsing-remitting EAE in SJL mice, therapeutic treatment regimen; assay type: in vivo
Source text: as §1, §2
With reference to FIG. 7, the non-peptide prokineticin receptor 1 and 2 antagonist PC-7 was administered intraperitoneally to 8-12 week old female SJL mice in which EAE had been induced by immunization with PLP139-151 (100 μg/mouse) in CFA. The PC-7 was given at a dose of 500 μg/kg (n=10). As a control, an equal amount of saline solution was injected (control) (n=10). The treatments began on the appearance of the first symptoms of the disease (Day 11). Ten mice per group were used. The graph represents the average daily disease score±standard error of the mean (SEM). The results are representative of three consecutive experiments that gave similar results.

DLN cells [3] = experiment: T-cell response in draining lymph node cells of mice with chronic EAE, restimulated in vitro with MOG35-55; assay type: cell-based; conditions: restimulated with MOG35-55, vs vehicle
Description: With reference to FIG. 11, 8-12 week old female C57B1/6 mice in which chronic EAE had been induced by immunization with MOG35-55 were preventively treated (day 0) with PC-7 at a dose of 500 μg/kg per day or with a vehicle as described in the previous experiments. The draining lymph nodes (DLN, inguinal and axillary) were obtained 10 days after immunization with MOG35-55. To assay proliferation, the DLN cells were restimulated in vitro with MOG35-55 at different concentrations, with Concanavalin A (2 μg/ml), or with the medium. Data are expressed as mean cpm±SEM, ng/ml±SEM, or pg/ml±SEM.
(§4) After 48 hours of incubation with 5% Co2 at 37° C., the cultures were loaded for 18 hours with 0.5 μCi 3H-thymidine per well.
To assay cytokine production, DLN cells were restimulated in vitro with MOG35-55 at different concentrations or with the medium.

[4] = system: chronic MOG35-55 induced EAE in C57B1/6 mice; experiment: Chronic EAE in C57B1/6 mice, preventive treatment regimen; assay type: in vivo
Source text: (§5) In the study conducted we verified the expression of PK-2 and its receptors PK-R1 and PK-R2 in the experimental model of chronic EAE, an experimental model of MS. The chronic EAE model was obtained in C57B1/6 mice by immunization with myelin oligodendrocyte glycoprotein peptide fragment 35-55 (MOG35-55) and PTX (Pertussis toxin) [Pedotti et al., PNAS 2003]. During chronic EAE, we observed an increase of mRNA expression of PK-2 by lymph node cells and purified CD4+ T cells in C57B1/6 mice during the disease. This increase of mRNA expression started before the onset of the disease and is less significant after its onset (FIG. 2). We observed also an important increase of the levels of the protein PK-2 in the serum of mice with MOG35-55 induced EAE (FIG. 3). This increase of PK-2 was accompanied by a dramatic reduction of PK-R2 expression in lymph node cells and CD4+T cells. […] Thus, the couple PK-2/PK-R1 seemed to play an important role during EAE, the experimental model of MS.
as §2
With reference to FIG. 9, the non-peptide prokineticin receptor 1 and 2 antagonist PC7 was administered intraperitoneally to 8-12 week old female C57B1/6 mice in which chronic EAE had been induced by immunization with MOG35-55 (100 μg/mouse) and PTX (400 ng/mouse). The PC-7 was given at a dose of 500 μg/kg (n=10). As a control, an equal amount of saline solution was injected (vehicle) (n=10). The treatments began at the time of induction of EAE (preventive treatment), or, more specifically, 4 hours after the induction of EAE. Ten mice per group were used. The graph represents the average daily disease score±standard error of the mean (SEM). The results are representative of three consecutive experiments that gave similar results.

[5] = system: chronic MOG35-55 induced EAE in C57B1/6 mice; experiment: Chronic EAE in C57B1/6 mice, therapeutic treatment regimen; assay type: in vivo
Source text: as §5, §2
With reference to FIG. 10, the non-peptide prokineticin receptor 1 and 2 antagonist PC-7 was administered intraperitoneally to 8-12 week old female C57B1/6 mice in which chronic EAE had been induced by immunization with MOG35-55 (100 μg/mouse) and PTX (400 ng/mouse). The PC-7 was given at a dose of 500 μg /kg (n=10). As a control, an equal amount of saline solution was injected (vehicle) (n=10). The treatments began on the onset of the first symptoms of the disease (day 12). Ten mice per group were used. The graph represents the average daily disease score±standard error of the mean (SEM). The results are representative of two consecutive experiments that gave similar results.

DLN cells [6] = experiment: T-cell response in draining lymph node cells of mice with relapsing-remitting EAE, restimulated in vitro with PLP139-151; assay type: cell-based; conditions: restimulated with PLP139-151, vs vehicle
Description: With reference to FIG. 8, 8-12 week old female SJL mice in which EAE had been induced by immunization with PLP139-151 in CFA were preventively treated (day 0) with PC-7 at a dose of 500 μg/kg per day or with vehicle as described in the previous experiments. The draining lymph nodes (DLN, inguinal and axillary) were obtained 7 days after immunization with PLP139-151. To assay proliferation, the DLN cells were restimulated in vitro with the antigen PLP139-151 at different concentrations, with Concanavalin A (2 μg /ml), or with the medium.
as §4
To assay cytokine production, DLN cells were restimulated in vitro with the antigen PLP139-151 at different concentrations or with the medium. Data are expressed as mean cpm±SEM, ng/ml±SEM, or pg/ml±SEM.

splenocytes = experiment: T-cell response in splenocytes of mice with relapsing-remitting EAE, restimulated in vitro with PLP139-151; assay type: cell-based
Description: With reference to FIG. 5, 8-12 week old female SJL mice in which EAE had been induced by immunization with PLP139-151 in CFA were preventively treated (day 0) with PC1 at a dose of 500 μg/kg per day, or with vehicle as described in FIG. 4. The splenocytes were obtained 35 days after immunization with PLP139-151, and were restimulated in vitro with the antigen PLP139-151 at different concentrations or with the medium.
To assay proliferation, after 48 hours of incubation with 5% Co2 at 37° C., the cultures were loaded for 18 hours with 0.5 μCi 3H-thymidine per well. To assay cytokine production, splenocytes were restimulated in vitro with the antigen PLP139-151 at different concentrations or with the medium. The concentration of Interferon-gamma (IFN-gamma), tumour necrosis factor (TNF), Interleukine-6 (IL-6), IL-17, IL-4, and IL-10 was determined in duplicate using the ELISA technique (ELISA DuoSet, Pharmingen, CA). The results are representative of two consecutive experiments that gave similar results.

[7] = SJL mice, 500 μg/kg i.p., preventive, Table 2
[8] = SJL mice, 500 μg/kg i.p. from first symptoms (Day 11), therapeutic
[9] = C57B1/6 mice, 500 μg/kg i.p., preventive
[10] = C57B1/6 mice, 500 μg/kg i.p. from first symptoms (day 12), therapeutic
[11] = DLN cells, relapsing-remitting EAE
[12] = splenocytes, restimulated with PLP139-151, ELISA, vs vehicle
[13] = SJL mice, 500 μg/kg i.p., preventive, Table 1

COc1ccc(Cn2c(NCCNC(=N)N)nc(=O)n(Cc3ccc(F)cc3)c2=O)cc1 [PC7]
Cumulative disease score [1, 7]: 21.2 ± 5.1 *
Onset of disease (Day) [1, 7]: 11.4 ± 0.1 * Day
Peak in disease Severity [1, 7]: 2.2 ± 0.3 *
Incidence (%) ([1]; SJL mice, 500 μg/kg i.p. from induction of EAE (preventive), Table 2): 90% (9/10)
severity of the disease (in words) ([1]; relapsing-remitting EAE): significantly reduces the severity of the disease
Cumulative disease score [2, 8]: 42.3 ± 7.5
Incidence (%) [2, 8]: 100% (10/10)
Peak in disease Severity [2, 8]: 2.6 ± 0.3
severity of the disease (in words) ([2]; relapsing-remitting EAE, therapeutic treatment, 500 μg/kg): significantly reduces the severity of the disease
peptide-specific T cells proliferation (DLN cells [3]; DLN cells 10 days after immunization, mice treated 500 μg/kg per day preventively): reduction
production of IFN-gamma (DLN cells [3]; DLN cells, chronic EAE): reduction
production of IL-10 (DLN cells [3]; DLN cells, chronic EAE): increasing
production of IL-17 (DLN cells [3]; DLN cells, chronic EAE): reduction
production of TNF (DLN cells [3]; DLN cells, chronic EAE): reduction
Cumulative disease score [4, 9]: 41.1 ± 11.8
Onset of disease [4, 9]: 16.8 ± 1.7 days
Peak in disease Severity [4, 9]: 2.5 ± 0.5
Incidence (%) ([4]; C57B1/6 mice, MOG35-55 and PTX, 500 μg/kg i.p. from induction of EAE (preventive)): 90% (9/10)
severity of the disease (in words) ([4]; chronic EAE, preventive treatment): significant reduction in the severity of the disease
Cumulative disease score [5, 10]: 50.9 ± 11.8
Incidence (%) [5, 10]: 100% (10/10)
Peak in disease Severity [5, 10]: 3.3 ± 0.3
severity of the disease (in words) ([5]; chronic EAE, therapeutic treatment, 500 μg/Kg): significant reduction in the severity of the disease
proliferation of lymph node cells (DLN cells [6]; DLN cells 7 days after immunization, mice treated 500 μg/kg per day preventively): reduced proliferation
levels of IL-17A (DLN cells [6]; [11]): slight reduction
levels of interleukin IL-6 (DLN cells [6]; [11]): increase
levels of interleukin IL-10 (DLN cells [6]; [11]): increase
production of IFN (DLN cells [6]; [11]): significantly lower
production of TNF (DLN cells [6]; [11]): significantly lower

CCc1ccc(Cn2c(=O)nc(NCCNC(=N)N)n(Cc3ccc(OC)cc3)c2=O)cc1 [PC1]
peptide-specific T cells proliferation (splenocytes; splenocytes 35 days after immunization, mice treated 500 μg/kg per day preventively, restimulated with PLP139-151, vs vehicle): reduction
production of IFN-gamma (splenocytes; [12]): reduction
production of IL-4 (splenocytes; [12]): increasing
production of TNF (splenocytes; [12]): reduction
Cumulative disease score [1, 13]: 24.8 ± 9.0 *
Onset of disease (Day) [1, 13]: 12.4 ± 1.0 * Day
Peak of disease Severity ([1]; SJL mice, 500 μg/kg i.p., preventive, score scale 0 to 5, Table 1): 1.7 ± 0.4 *
Incidence (%) ([1]; SJL mice, 500 μg/kg intraperitoneally from induction of EAE (preventive), Table 1): 70% (7/10)
severity of the disease (in words) ([1]; relapsing-remitting EAE): reduction in the severity of the disease
onset of the disease (in words) ([1]; relapsing-remitting EAE, treated from the time of induction of EAE): delay in the onset of the disease
